Laboratory results: US20230031406A1, “COMPOUNDS AND COMPOSITIONS FOR TREATING CONDITIONS ASSOCIATED WITH NLRP ACTIVITY” (Novartis AG, priority 2018, published 2023)
Where two headings read alike, the source gives them in different places. Values belong to the molecule of their own block, whether it stands above or below them.

Tested on: PMA-differentiated THP-1 cells
Assay: IL-1β production in PMA-differentiated THP-1 cells stimulated with gramicidin (hTHP-1 assay containing 2% fetal bovine serum; Procedures 1 and 2)
Type: cell-based, human
Conditions: 2% fetal bovine serum
Outline: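 THP-1 cells were differentiated with PMA (20 ng/ml, 16-18 h), detached, and plated at 50,000 cells/well in RPMI 1640 with 2% FBS. They were pre-treated with compound (0.0017–100 μM, 0.37% DMSO) for 1 h, then stimulated with gramicidin (5 μM) for 2 h. Supernatant IL-1β was measured by HTRF.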

[1] = Homo sapiens, THP-1, Table B1, class symbols, read-out: Average IC50 of compounds in hTHP-1 assay: hTHP-1 IC50
[2] = Homo sapiens, THP-1, Table B2, class symbols, read-out: hTHP-1 IC50
[3] = Table B2, class symbols, read-out: hTHP-1 IC50
[4] = Table B4, class symbols, read-out: hTHP-1 IC50
[5] = Homo sapiens, THP-1, Table B2, numeric bounds, read-out: hTHP-1 IC50

SMILES: CC(C)c1nc(C(F)(F)F)nc(C(C)C)c1NC(=O)N=S(N)(=O)c1sc(C(C)(C)O)nc1CO (stereo not shown) [Compound 179, N′-((4,6-diisopropyl-2-(trifluoromethyl)pyrimidin-5-yl)carbamoyl)-4-(hydroxymethyl)-2-(2-hydroxypropan-2-yl)thiazole-5-sulfonimidamide]
- IC50 [1]: 1 to 5 µM

SMILES: CC(C)(O)c1cc(S(N)(=O)=NC(=O)Nc2c3c(nc4c2CCC4)CCC3)nn1-c1ccccc1 (single isomer, unassigned) [Compound 159a, (R) or (S)-N′-((1,2,3,5,6,7-hexahydrodicyclo-penta[b,e]pyridin-8-yl)carbamoyl)-5-(2-hydroxypropan-2-yl)-1-phenyl-1H-pyrazole-3-sulfonimidamide]
- IC50 (Table B1, class symbols, read-out: Average IC50 of compounds in hTHP-1 assay: hTHP-1 IC50): 1 to 5 µM

SMILES: CC(C)(O)c1ncc(S(N)(=O)=NC(=O)Nc2c3c(nc4c2CCC4F)CCC3)s1 (single isomer, unassigned) [Compound 183d, (S,R) or (S,S)-N′-((3-fluoro-1,2,3,5,6,7-hexahydrodicyclo-penta[b,e]pyridin-8-yl)carbamoyl)-2-(2-hydroxypropan-2-yl)thiazole-5-sulfonimidamide]
- IC50 (Table B1, numeric bounds, read-out: Average IC50 of compounds in hTHP-1 assay: hTHP-1 IC50): > 30 µM

SMILES: CCn1nc(S(N)(=O)=NC(=O)Nc2c3c(nc4c2CCC4(C)C)CCC3)cc1CO (single isomer, unassigned) [Example 725, (S) or (R)-N′-((3,3-dimethyl-1,2,3,5,6,7-hexahydrodicyclopenta[b,e]pyridin-8-yl)carbamoyl)-1-ethyl-5-(hydroxymethyl)-1H-pyrazole-3-sulfonimidamide]
- IC50 (Homo sapiens, THP-1, Table B3, hTHP-1 assay, numeric values, read-out: IC50): > 30 µM

SMILES: CC(C)c1nc(C(F)(F)F)nc(C(C)C)c1NC(=O)N=S(N)(=O)c1sc(C(C)(C)O)nc1CO (stereo not shown) [Compound 713]
- IC50 [2]: 1 to 5 µM

SMILES: CCC1CCc2c1nc1c(c2NC(=O)N=S(N)(=O)c2cnc(C(C)(C)O)s2)CCC1 (single isomer, unassigned) [Compound 662a, (S, S) or (S, R) or (R, S) or (R, R)-N′-((3-Ethyl-1,2,3,5,6,7-hexaliydrodicyclopenta [b,e]pyridin-8-yl)caibamoyl)-2-(2-hydroxypropan-2-yl)thiazole-5-sulfonimidamide]
- IC50 (Table B2, numeric bounds, read-out: hTHP-1 IC50): > 30 µM

SMILES: CC(C)c1ncc(F)c(C(C)C)c1NC(=O)N=S(N)(=O)c1ccc(CN(C)C)cc1 (single isomer, unassigned) [Compound 132b, (S) or (R)-4-((dimethyl-amino)methyl)-N′-((5-fluoro-2,4-diisopropylpyridin-3-yl)carbamoyl)benzene-sulfonimidamide]
- IC50 (Homo sapiens, THP-1, Table B1, numeric bounds, read-out: Average IC50 of compounds in hTHP-1 assay: hTHP-1 IC50): > 30 µM

SMILES: Cc1nc2c(c(NC(=O)N=S(N)(=O)c3ncc(C(C)(C)O)s3)c1C1CC1)CCC2 (single isomer, unassigned) [Compound 618a, (S) or (R)-N′-((3-cyclopropyl-2-methyl-6,7-dihydro-5H-cyclopenta[b]pyridin-4-yl)carbamoyl)-5-(2-hydroxypropan-2-yl)thiazole-2-sulfonimidamide]
- IC50 [5]: > 30 µM

SMILES: Cc1c(C2CCC2)nc2c(c1NC(=O)N=S(N)(=O)c1cnc(C(C)(C)O)s1)CCC2 (single isomer, unassigned) [Compound 649b, (S) or (R)-N′-((2-cyclobutyl-3-methyl-6,7-dihydro-5H-cyclopenta[b]pyridin-4-yl)carbamoyl)-2-(2-hydroxypropan-2-yl)thiazole-5-sulfonimidamide]
- IC50 [5]: > 30 µM

SMILES: CC(C)(O)c1cc(F)c(S(N)(=O)=NC(=O)Nc2c3c(nc4c2CCC4)CCC3)s1 (stereo not shown) [Compound 105, 3-fluoro-N′-((1,2,3,5,6,7-hexahydrodicyclopenta[b,e]pyridin-8-yl)carbamoyl)-5-(2-hydroxypropan-2-yl)thiophene-2-sulfonimidamide]
- IC50 [1]: 0.04 to 0.2 µM

SMILES: Cc1c(C(=O)O)nc2c(c1NC(=O)N=S(N)(=O)c1cnc(C(C)(C)O)s1)CCC2 (stereo not shown) [Compound 712]
- IC50 [5]: > 30 µM

The next lines start with the values.

- IC50 [2]: 1 to 5 µM
SMILES: CC(C)(O)c1csc(S(N)(=O)=NC(=O)Nc2cc(CC(F)(F)F)nc3c2CCC3)c1 (stereo not shown) [Compound 607, 4-(2-Hydroxypropan-2-yl)-N′-((2-(2,2,2-trifluoroethyl)-6,7-dihydro-5H-cyclopenta[b]pyridin-4-yl)carbamoyl)thiophene-2-sulfonimidamide]

- IC50 [3]: 0.2 to 1 µM
SMILES: Cc1c(C(F)(F)F)nc2c(c1NC(=O)N=S(N)(=O)c1cnc(C(C)(C)O)s1)CCC2 (single isomer, unassigned) [Compound 661a, (R) or (S)-2-(2-Hydroxypropan-2-yl)-N′-((3-methyl-2-(trifluoromethyl)-6,7-dihydro-5H-cyclopenta[b]pyridin-4-yl)carbamoyl)thiazole-5-sulfonimidamide]

- IC50 [3]: 5 to 30 µM
SMILES: CCC1CCc2c1nc1c(c2NC(=O)N=S(N)(=O)c2ccn(C(F)F)n2)CCC1 (stereo not shown) [Compound 668, 1-(Difluoromethyl)-N′-((3-ethyl-1,2,3,5,6,7-hexahydrodicyclopenta[b,e]pyridin-8-yl)carbamoyl)-1H-pyrazole-3-sulfonimidamide]

- IC50 [2]: 5 to 30 µM
SMILES: CC1(C)CCc2c1nc1c(c2NC(=O)N=S(N)(=O)c2cnn(C(F)F)c2)CCC1 (stereo not shown) [Compound 637, 1-(Difluoromethyl)-N′-((3,3-dimethyl-1,2,3,5,6,7-hexahydrodicyclopenta[b,e]pyridin-8-yl)carbamoyl)-1H-pyrazole-4-sulfonimidamide]

- IC50 [3]: 1 to 5 µM
SMILES: Cc1c(C(F)(F)F)nc2c(c1NC(=O)N=S(N)(=O)c1ccn(C(F)F)n1)CCC2 (single isomer, unassigned) [Compound 621b, (R) or (S)-1-(Difluoromethyl)-N′-((3-methyl-2-(trifluoromethyl)-6,7-dihydro-5H-cyclopenta[b]pyridin-4-yl)carbamoyl)-1H-pyrazole-3-sulfonimidamide]

- IC50 (Homo sapiens, THP-1, Table B3, hTHP-1 assay, class symbols, read-out: IC50): 1 to 5 µM
SMILES: Cc1c(CC(F)(F)F)nc2c(c1NC(=O)N=S(N)(=O)c1nn(C(F)F)cc1F)CCC2 (single isomer, unassigned) [Example 723, (R) or (S)-1-(difluoromethyl)-4-fluoro-N′-((3-methyl-2-(2,2,2-trifluoroethyl)-6,7-dihydro-5H-cyclopenta[b]pyridin-4-yl)carbamoyl)-1H-pyrazole-3-sulfonimidamide]

- IC50 [4]: 5 to 30 µM
SMILES: NS(=O)(=NC(=O)Nc1c2c(nc(C(F)(F)F)c1C1CC1)CCC2)c1nn(C(F)F)cc1F (single isomer, unassigned) [Example 776, (S) or (R)-N′-((3-cyclopropyl-2-(trifluoromethyl)-6,7-dihydro-5H-cyclopenta[b]pyridin-4-yl)carbamoyl)-1-(difluoromethyl)-4-fluoro-1H-pyrazole-3-sulfonimidamide]

- IC50 [5]: > 30 µM
SMILES: Cc1c(C(C)(C)C)nc2c(c1NC(=O)N=S(N)(=O)c1cc(C(C)(C)O)cs1)CCC2 (single isomer, unassigned) [Compound 657a, (S) or (R)-N′-((2-(tert-butyl)-3-methyl-6,7-dihydro-5H-cyclopenta[b]pyridin-4-yl)carbamoyl)-4-(2-hydroxypropan-2-yl)thiophene-2-sulfonimidamide]

- IC50 [2]: 5 to 30 µM
SMILES: Cc1c(C(C)(C)C)nc2c(c1NC(=O)N=S(N)(=O)c1cc(C(C)(C)O)cs1)CCC2 (stereo not shown) [Compound 657, N′-((2-(tert-butyl)-3-methyl-6,7-dihydro-5H-cyclopenta[b]pyridin-4-yl)carbamoyl)-4-(2-hydroxypropan-2-yl)thiophene-2-sulfonimidamide]

- IC50 [3]: 0.2 to 1 µM
SMILES: Cc1c(C(F)(F)F)nc2c(c1NC(=O)N=S(N)(=O)c1cnc(C(C)(O)CO)s1)CCC2 (single isomer, unassigned) [Compound 605a, (S, RS) or (R, RS) 2-(-1,2-dihydroxypropan-2-yl)-N′-((3-methyl-2-(trifluoromethyl)-6,7-dihydro-5H-cyclopenta[b]pyridin-4-yl)carbamoyl)thiazole-5-sulfonimidamide]

- IC50 [2]: 0.2 to 1 µM
SMILES: CCn1ccc(S(N)(=O)=NC(=O)Nc2c3c(nc4c2CCC42CC2)CCC3)n1 (stereo not shown) [Compound 604, 1-Ethyl-N′-((1′,5′,6′,7′-tetrahydro-2′H-spiro[cyclopropane-1,3′-dicyclopenta[b,e]pyridin]-8′-yl)carbamoyl)-1H-pyrazole-3-sulfonimidamide]

- IC50 [5]: > 30 µM
SMILES: CC(C)n1nc(S(N)(=O)=NC(=O)Nc2c3c(nc4c2CCC4(C)C)CCC3)cc1C(C)(C)O (single isomer, unassigned) [Compound 615a, (S) or (R)-N′-((3,3-dimethyl-1,2,3,5,6,7-hexahydrodicyclopenta [b,e]pyridin-8-yl)carbamoyl)-5-(2-hydroxypropan-2-yl)-1-isopropyl-1H-pyrazole-3-sulfonimidamide]

- IC50 [4]: 0.04 to 0.2 µM
SMILES: Cc1c(C(F)(F)F)nc2c(c1NC(=O)N=S(N)(=O)c1nn(C(C)C)cc1F)CCC2 (single isomer, unassigned) [Example 789, (R) or (S)-4-fluoro-1-isopropyl-N′-((3-methyl-2-(trifluoromethyl)-6,7-dihydro-5H-cyclopenta[b]pyridin-4-yl)carbamoyl)-1H-pyrazole-3-sulfonimidamide]

- IC50 [5]: > 30 µM
SMILES: Cc1c(C(F)(F)F)nc2c(c1NC(=O)N=S(N)(=O)c1ccn(C(C)C)n1)CCC2 (single isomer, unassigned) [Compound 628a, (S) or (R)-1-Isopropyl-N′-((3-methyl-2-(trifluoromethyl)-6,7-dihydro-5H-cyclopenta[b]pyridin-4-yl)carbamoyl)-1H-pyrazole-3-sulfonimidamide]
